Legend:
opioid receptors [1] = details: metabolite of naltrexone; cited from earlier work
[2] = Passive loading of naloxone and naltrexone into MLV's liposomes; type: physicochemical
opioid receptors [3] = details: in vivo; cited from earlier work
μ-opioid receptor = μ-opioid receptor (Homo sapiens, UniProt P35372); details: cited from earlier work
κ-receptor [4] = biological target: T1, κ-receptor (Homo sapiens, UniProt P41145); details: in vitro; cited from earlier work
δ-receptor [5] = biological target: T2, δ-receptor (Homo sapiens, UniProt P41143); details: in vitro; cited from earlier work
μ-receptor = μ-receptor (Homo sapiens, UniProt P35372); details: in vitro; cited from earlier work
κ-receptor [6] = biological target: T1, κ-receptor; details: in vitro; cited from earlier work; remark: listed apart in the source
δ-receptor [7] = biological target: T2, δ-receptor; details: in vitro; cited from earlier work; remark: listed apart in the source

μ-opioid receptor, sequence (P35372 whole entry, species assumed): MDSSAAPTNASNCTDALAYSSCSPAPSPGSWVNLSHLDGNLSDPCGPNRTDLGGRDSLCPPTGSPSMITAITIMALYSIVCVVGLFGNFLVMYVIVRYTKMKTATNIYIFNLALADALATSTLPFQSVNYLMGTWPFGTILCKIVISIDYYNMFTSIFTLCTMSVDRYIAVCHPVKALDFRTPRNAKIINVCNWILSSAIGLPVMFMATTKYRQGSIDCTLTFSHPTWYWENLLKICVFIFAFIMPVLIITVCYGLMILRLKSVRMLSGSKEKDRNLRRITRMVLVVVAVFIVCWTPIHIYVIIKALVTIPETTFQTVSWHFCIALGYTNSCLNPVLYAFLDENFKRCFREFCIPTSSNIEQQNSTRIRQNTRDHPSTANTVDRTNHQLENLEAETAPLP
T2 sequence (P41143 whole entry): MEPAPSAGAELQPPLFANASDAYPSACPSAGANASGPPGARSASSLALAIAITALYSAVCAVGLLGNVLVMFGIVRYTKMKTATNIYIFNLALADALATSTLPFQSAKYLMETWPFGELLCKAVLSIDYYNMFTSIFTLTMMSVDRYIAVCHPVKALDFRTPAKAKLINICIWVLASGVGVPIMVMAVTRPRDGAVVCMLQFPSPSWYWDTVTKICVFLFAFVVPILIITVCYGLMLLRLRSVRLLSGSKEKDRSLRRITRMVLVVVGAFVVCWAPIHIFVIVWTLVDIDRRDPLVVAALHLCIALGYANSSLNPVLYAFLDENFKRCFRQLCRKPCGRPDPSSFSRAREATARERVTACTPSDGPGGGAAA
T1 sequence (P41145 whole entry): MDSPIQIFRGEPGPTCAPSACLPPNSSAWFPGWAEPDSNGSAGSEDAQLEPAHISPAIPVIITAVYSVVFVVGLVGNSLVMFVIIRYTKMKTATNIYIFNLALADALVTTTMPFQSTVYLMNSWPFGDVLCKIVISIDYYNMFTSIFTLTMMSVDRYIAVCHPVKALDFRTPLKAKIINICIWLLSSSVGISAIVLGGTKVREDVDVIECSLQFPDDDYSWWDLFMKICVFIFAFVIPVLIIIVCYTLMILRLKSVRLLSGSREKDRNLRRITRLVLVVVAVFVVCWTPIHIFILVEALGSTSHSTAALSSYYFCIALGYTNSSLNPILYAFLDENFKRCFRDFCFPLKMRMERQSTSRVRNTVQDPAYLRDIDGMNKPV
μ-receptor, sequence (P35372 whole entry, species assumed): as the sequence (P35372 whole entry, species assumed) above

## Oc1ccc2c3c1O[C@H]1[C@H](O)CC[C@@]4(O)[C@@H](C2)N(CC2CC2)CC[C@]314 [60-naltrexol]
Opioid receptors [1]
  antagonist activity: active antagonist

## C=CCN1CC[C@]23c4c5ccc(O)c4O[C@H]2C(=O)CC[C@@]3(O)[C@H]1C5 [Naloxone, 17-allyl-4,5α-epoxy-3,14-dihydroxymorphinan-6-one]
[2]
  Liposomal naloxone conc.: 6.8 mg/mL

## O=C1CC[C@@]2(O)[C@H]3Cc4ccc(O)c5c4[C@@]2(CCN3CC2CC2)[C@H]1O5 [Naltrexone, 17-(cyclopropylmethyl)-4,5α-epoxy-3,14-dihydroxymorphinan-6-one]
[2]
  Liposomal naltrexone conc.: 8.1 mg/mL
Opioid receptors [3]
  duration of effect: last about a day

## NC(=O)c1ccc2c(c1O)[C@]13CCN(CC4CC4)[C@H](C2)[C@]1(O)CCC(=O)C3 [Samidorphan, 3-carboxamido-4-hydroxynaltrexone]
μ-opioid receptor
  greater affinity at mu-opioid receptor compared to naltrexone: five
μ-opioid receptor; in vitro
  affinity at μ-receptor: high affinity
κ-receptor [4]
  affinity at κ-receptor: high affinity
δ-receptor [5]
  affinity at δ-receptor: high affinity
μ-receptor
  action at μ-receptor: antagonist
κ-receptor [6]
  action at κ-receptor: partial agonist
δ-receptor [7]
  action at δ-receptor: partial agonist

Reference: patent US20220313686A1, “PHARMACEUTICAL COMPOSITIONS COMPRISING A COMBINATION OF OPIOID ANTAGONISTS” (YISSUM RESEARCH DEVELOPMENT COMPANY OF THE HEBREW …, priority 2019, published 2022)
